Assay results from patent EP3653215A1, “THERANOSTIC INHIBITORS AND ACTIVITY-BASED PROBES FOR THE KLK7 PROTEASE” (University of Patras, priority 2018, dated 2020).
pIC50: −log10 of the molar value. “Also recorded” adds a separate entry of the source. Like-named read-outs stand apart in the source and are kept apart here.

Legend:
[1] = target: T1, KLK7 (Homo sapiens, UniProt P49862); test: gel zymography (casein); assay type: biochemical
[2] = test system: trypsin; test: Western-like blotting with activity-based probe; assay type: binding; conditions: enzyme reacted with probe 2 or 16 hours
Experimental: (§1) For Western-like blotting, the enzymes were reacted with Biotin-FFP for 2 or 16 hours, resolved on SDS-PAGE, then, the proteins were transferred on PVDF membranes. Membranes were blocked with 3% BSA in PBS for 40 min at room temperature, washed twice with PBS and incubated for 1 hour at room temperature with streptavidin-HRP polymer (1:2,000) and subsequently washed four times with PBS containing 0.05% Tween-20. Specific bands were identified with ECL.

[3] = target: T2, KLK6 (Homo sapiens, UniProt Q92876); test: Western-like blotting with activity-based probe; assay type: binding; conditions: enzyme reacted with probe 2 or 16 hours
Experimental: as §1

[4] = test system: skin of wildtype (wt) or Klk5^-/- mice; test: erythema/eschar and oedema scoring after application on the skin; assay type: in vivo; set-up: key to Erythema and Eschar Score after (hrs) 4 / Erythema and Eschar Score after (hrs) 24 / Erythema and Eschar Score after (hrs) 48 / Erythema and Eschar Score after (hrs) 72: 0: No erythema; 1: Very slight erythema (barely perceptible); 2: Well defined erythema; 3: Moderate to severe erythema; 4: Severe erythema (beef redness); key to Oedema Score after (hrs) 4 / Oedema Score after (hrs) 24 / Oedema Score after (hrs) 48 / Oedema Score after (hrs) 72: 0: No oedema; 1: Very slight oedema (barely perceptible); 2: Slight oedema (edges of area well defined by definite raising); 3: Moderate oedema (raised approximately 1mm); 4: Severe erythema (raised more than 1mm and extending beyond area of exposure); conditions: for erythema or oedema in vivo: 1 mM on the skin of wildtype (wt) or Klk5^-/- mice; for erythema or oedema in vivo / toxicity: result in words; for Erythema and Eschar Score after (hrs) 4 / Oedema Score after (hrs) 4 / Erythema and Eschar Score after (hrs) 24 / Oedema Score after (hrs) 24 / Erythema and Eschar Score after (hrs) 48 / Oedema Score after (hrs) 48 / Erythema and Eschar Score after (hrs) 72 / Oedema Score after (hrs) 72: 1 mM on the skin; for Erythema and Eschar Score after (hrs) 4 / Oedema Score after (hrs) 4: 4 hrs; for Erythema and Eschar Score after (hrs) 24 / Oedema Score after (hrs) 24: 24 hrs; for Erythema and Eschar Score after (hrs) 48 / Oedema Score after (hrs) 48: 48 hrs; for Erythema and Eschar Score after (hrs) 72 / Oedema Score after (hrs) 72: 72 hrs; for toxicity: wild type and Klk5^-/- mice
Text: Scoring was based on the following criteria (Table 2 and 3): Table 2 - Scoring criteria for erythema and eschar formation

[5] = target: T1, KLK7; assay type: binding
[6] = test system: trypsin; test: enzyme kinetic study, cleavage of fluorescent substrate Z-Phe-Arg-AMC; assay type: biochemical
Experimental: (§2) The enzyme kinetic study testing the ability of Boc-FFP to inhibit trypsin or KLK6 was performed with cleavage of fluorescent substrate Z-Phe-Arg-AMC. The enzymes were used at 12 nM and the substrate at 50 µM. Boc-FFP was used at 1.2 µM (100:1 molar ration inhibitor: enzyme). Aprotinin was used a positive control at 500 nM final concentration. Fluorescence was measured (λexc=380 nm, λem=440 nm) for 3 min and the results were expressed as ΔF/Δt.

[7] = target: T2, KLK6; test: as above; assay type: biochemical
Experimental: as §2

[8] = test system: elastase (ELA); test: gel zymography, specificity; assay type: biochemical; conditions: 2 hours at room temperature
Experimental: (§3) For gel zymography, the compounds were reacted with the enzymes at room temperature for 2 hours, then mixed with zymogram loading buffer without mercaptoethanol, incubated at 37°C for 15 min and resolved on 12% SDS-PAGE containing 0.1% casein or gelatin substrates. Gels were washed twice with 50 mM Tris-HCI pH 7.5, 5 mM CaCl2, 2.5% Triton X-100 for 15 min, then 15 min with 50 mM Tris-HCI, pH 7.5, 5 mM CaCl2, 0.1% Triton X-100, and finally incubated in the latter buffer for 24 hours and stained with Coomassie G-250. Proteolytic bands appear white against a blue background.

[9] = test system: trypsin; test: gel zymography, specificity; assay type: biochemical; conditions: 2 hours at room temperature
Experimental: as §3

[10] = target: T3, KLK13 (Homo sapiens, UniProt Q9UKR3); test: gel zymography, specificity; assay type: biochemical; conditions: 2 hours at room temperature
T3 sequence (Q9UKR3 17-277): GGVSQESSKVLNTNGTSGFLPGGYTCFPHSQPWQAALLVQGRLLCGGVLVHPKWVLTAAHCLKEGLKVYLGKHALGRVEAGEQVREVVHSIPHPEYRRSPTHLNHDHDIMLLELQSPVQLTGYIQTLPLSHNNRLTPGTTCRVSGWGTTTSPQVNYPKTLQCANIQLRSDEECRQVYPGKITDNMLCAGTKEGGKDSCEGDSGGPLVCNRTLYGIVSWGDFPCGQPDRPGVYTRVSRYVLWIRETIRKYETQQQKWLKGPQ
Experimental: as §3

[11] = target: T2, KLK6; test: gel zymography, specificity; assay type: biochemical; conditions: 2 hours at room temperature
Experimental: as §3

[12] = test system: Spink5^-/^-Klk5^-/- mice; test: application on the skin of Spink5^-/^-Klk5^-/- mice (desquamation, inflammatory cytokines); assay type: in vivo
[13] = target: T1, KLK7; test: KLK7 inhibition study for IC50 determination, BODIPY-FL casein substrate; assay type: biochemical; conditions: KLK7 6 nM, inhibitor 50 nM to 10 µM, 16 hours at room temperature, BODIPY-FL casein 30 µg/ml
Experimental: For IC50 determination, KLK7 inhibition study was carried out in assay buffer (100 mM Tris-HCI, pH 7.8, 100 mM NaCl, 10 mM CaCl2, 0.005% Triton X-100). KLK7 (6 nM) was incubated with the inhibitor (50 nM to 10 µM) for 16 hours at room temperature in the assay buffer. Then, the BODIPY-FL casein substrate (Molecular Probes) was added at 30 µg/ml and fluorescence was measured (λexc=485 nm, λem=530 nm). After 3 hours the fluorescence was measured again. Data were inserted into the online available program Very Simple IC50 Tool (http://www.ic50.tk/) for fitting and calculation of the IC50.

[14] = gel zymography, casein, compound reacted with enzyme 2 hours at room temperature
[15] = enzyme kinetic study, result in words

T1 sequence (P49862 30-253): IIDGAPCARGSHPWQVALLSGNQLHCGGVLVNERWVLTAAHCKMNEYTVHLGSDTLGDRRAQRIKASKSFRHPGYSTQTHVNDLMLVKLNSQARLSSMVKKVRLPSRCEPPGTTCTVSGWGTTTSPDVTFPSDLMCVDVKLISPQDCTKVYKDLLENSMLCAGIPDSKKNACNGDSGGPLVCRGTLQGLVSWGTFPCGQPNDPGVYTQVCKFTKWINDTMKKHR

SMILES | inhibition of KLK7 activity [1, 14] | erythema or oedema in vivo [4] | Erythema and Eschar Score after (hrs) 4 ([4]; Klk5^-/- mice) | Oedema Score after (hrs) 4 ([4]; Klk5^-/- mice) | Erythema and Eschar Score after (hrs) 24 ([4]; Klk5^-/- mice) | Oedema Score after (hrs) 24 ([4]; Klk5^-/- mice) | Erythema and Eschar Score after (hrs) 48 ([4]; Klk5^-/- mice) | Oedema Score after (hrs) 48 ([4]; Klk5^-/- mice) | Erythema and Eschar Score after (hrs) 72 ([4]; Klk5^-/- mice) | Oedema Score after (hrs) 72 ([4]; Klk5^-/- mice) | toxicity [4] | Erythema and Eschar Score after (hrs) 4 ([4]; wt mice) | Oedema Score after (hrs) 4 ([4]; wt mice) | Erythema and Eschar Score after (hrs) 24 ([4]; wt mice) | Oedema Score after (hrs) 24 ([4]; wt mice) | Erythema and Eschar Score after (hrs) 48 ([4]; wt mice) | Oedema Score after (hrs) 48 ([4]; wt mice) | Erythema and Eschar Score after (hrs) 72 ([4]; wt mice) | Oedema Score after (hrs) 72 ([4]; wt mice) | also measured
CC(C)(C)OC(=O)NC(Cc1ccccc1)C(=O)NC(c1ccccc1)P(=O)(Oc1ccccc1)Oc1ccccc1 (stereo not drawn) [Boc-FbFP] | only Boc-FFP can inhibit the activity of KLK7 |  |  |  |  |  |  |  |  |  |  |  |  |  |  |  |  |  |  | 
CC(C)(C)OC(=O)NC(Cc1ccccc1)C(=O)NC(CCc1ccccc1)P(=O)(Oc1ccccc1)Oc1ccccc1 (stereo not drawn) [Boc-FcFP] | only Boc-FFP can inhibit the activity of KLK7 |  |  |  |  |  |  |  |  |  |  |  |  |  |  |  |  |  |  | 
O=C(CCCCCNC(=O)CCCC[C@H]1SCC2NC(=O)NC21)NCCCCCC(=O)NC(Cc1ccccc1)C(=O)NC(Cc1ccccc1)P(=O)(Oc1ccccc1)Oc1ccccc1 (stereo partly drawn) [Biotin-FFP, diphenyl 1-(2-(6-(6-(5-((4R)-2-oxo-hexahydro-1H-thieno[3,4-d]imidazole-4-yl)pentanamido)hexanamido)hexanamido)-3-phenylpropanamido)-2-phenylethylphosphonate] |  | did not exhibit either erythema or oedema | 0 | 0 | 0 | 0 | 0 | 0 | 0 | 0 | lack toxicity | 0 | 0 | 0 | 0 | 0 | 0 | 0 | 0 | detection of trypsin [2]: not the trypsin or the KLK6; also recorded: does not react with KLK6 and trypsin; detection of KLK6 [3]: does not react with KLK6 and trypsin; detection of active KLK7 [5]: only detected the active KLK7; labeling of KLK7, signal [5]: higher signal compared to Biotin-FbFP; also recorded: significant signal enhancement
CC(C)(C)OC(=O)NC(Cc1ccccc1)C(=O)NC(Cc1ccccc1)P(=O)(Oc1ccccc1)Oc1ccccc1 (stereo not drawn) [Boc-FFP, tert-butvl 1-(1-(diphenoxvphosphorvl)-2-phenylethylamino)-1-oxo-3-phenylpropan-2-ylcarbamate] |  | did not exhibit either erythema or oedema | 0 | 0 | 0 | 0 | 0 | 0 | 0 | 0 | lack toxicity | 0 | 0 | 0 | 0 | 0 | 0 | 0 | 0 | inhibition of the activity of trypsin [6, 15]: did not inhibit; ΔF/Δt ([6]; trypsin 12 nM, Z-Phe-Arg-AMC 50 µM, change in fluorescence over 3 min, Boc-FFP 1.2 µM pre-incubated 2 hours, Aprotinin 500 nM, trypsin alone 33.49): 33.26; ΔF/Δt ([7]; KLK6 12 nM, Z-Phe-Arg-AMC 50 µM, change in fluorescence over 3 min, Boc-FFP 1.2 µM pre-incubated 2 hours, Aprotinin 500 nM, KLK6 alone 35.54): 37.96; inhibition of the activity of KLK6 [7, 15]: did not inhibit; inhibition of KLK7 activity [1]: only Boc-FFP could effectively inhibit KLK7 activity; also recorded: can also inhibit the KLK7 activity; also recorded: can only inhibit the activity of KLK7; also recorded: Only KLK7 was inhibited; inhibition of elastase (ELA) [8]: Only KLK7 was inhibited; inhibition of trypsin [9]: Only KLK7 was inhibited; inhibition of KLK13 [10]: Only KLK7 was inhibited; inhibition of KLK6 [11]: Only KLK7 was inhibited; reduction of macroscopic desquamation ([12]; application on the skin of Spink5^-/^-Klk5^-/- mice, versus solvent control side): approximately 50%; expression of inflammatory cytokines ([12]; skin of Spink5^-/^-Klk5^-/- mice, RT-qPCR, versus solvent treatment): suppressed the expression of inflammatory cytokines; pIC50 [13]: 5.72
